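How tested: cells in 96-well plates exposed to compound for 48 hours at five concentrations. The concentration for 50% growth inhibition is given as GI50. TGI is the concentration that stops growth completely.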
Legend:
Test in all cases: NCI anticancer screen, dose series, 48 h
KM12 colon = test system: KM12 colon
SF-295 CNS = test system: SF-295 CNS
NCI-H460 lung = test system: NCI-H460 lung
EKVX NSCLC = test system: EKVX NSCLC
HOP-62 NSCLC = test system: HOP-62 NSCLC
NCI/ADR-RES ovarian = test system: NCI/ADR-RES ovarian
NCI-H23 lung = test system: NCI-H23 lung
HCT-116 colon = test system: HCT-116 colon
UACC-257 melanoma = test system: UACC-257 melanoma
K-562 leukemia = test system: K-562 leukemia

SMILES | TGI (KM12 colon) [µM] | TGI (SF-295 CNS) [µM] | TGI (NCI-H460 lung) [µM] | TGI (EKVX NSCLC) [µM] | TGI (HOP-62 NSCLC) [µM] | TGI (NCI/ADR-RES ovarian) [µM] | TGI (NCI-H23 lung) [µM] | TGI (HCT-116 colon) [µM] | TGI (UACC-257 melanoma) [µM] | TGI (K-562 leukemia) [µM] | GI50 (KM12 colon) [µM] | GI50 (SF-295 CNS) [µM] | GI50 (NCI-H460 lung) [µM] | GI50 (EKVX NSCLC) [µM] | GI50 (NCI-H23 lung) [µM] | GI50 (UACC-257 melanoma) [µM] | GI50 (HOP-62 NSCLC) [µM] | GI50 (NCI/ADR-RES ovarian) [µM] | GI50 (K-562 leukemia) [µM] | GI50 (HCT-116 colon) [µM]
CON(C)c1nc(N)c(C#N)c(C#N)c1C#N | > 10 | > 10 | > 10 | > 10 | > 10 | > 10 | > 10 | > 10 | – | – | – | – | – | – | – | – | – | – | – | –
C=C1CC[C@@]2(C)[C@@H]([C@@H]1C)[C@H]1CC[C@@H]3[C@@]4(C)CC[C@H](O)C(C)(C)[C@@H]4CC[C@@]3(C)[C@]1(C)C[C@@H]2O | 15.8 | 12.2 | 4.7 | 7.22 | 9.18 | 14.2 | 5.64 | > 23.9 | 31.3 | – | – | – | – | – | – | – | – | – | – | –
C=C1C(=O)OC2C1CCC(=C)C1CC(O)C(=C)C12 (centres undefined) | 30.4 | > 100 | 36.6 | 20.3 | 49.8 | 54.9 | 34 | 26.4 | 27.2 | 21.4 | – | – | – | – | – | – | – | – | – | –
Cc1cc(OCc2nc(N)nc(N)c2-c2ccc(Cl)c(Cl)c2)ccc1[N+](=O)[O-] | 33.8 | 4.72 | 4.88 | 45 | 12 | 18.6 | 4.79 | 16 | 3.28 | > 100 | – | – | – | – | – | – | – | – | – | –
O=C([CH-]C(=O)c1ccccc1)c1ccccc1.[C-]#[O+].[C-]#[O+].[Ir] | > 100 | > 100 | > 100 | > 100 | – | – | > 100 | – | > 100 | – | 66.1 | 42.9 | 39.7 | > 100 | 52.8 | > 100 | – | – | – | –
O=C(O)c1cc2ccccc2c(Cc2c(O)c(C(=O)O)cc3ccccc23)c1O | > 100 | > 100 | > 100 | > 100 | > 100 | > 100 | > 100 | > 100 | > 100 | > 100 | – | – | – | – | – | – | – | – | – | –
COc1ccc(CN(CCN(C)C)c2ccccn2)cc1 (tested in a mixture with another compound) | > 100 | > 100 | – | – | > 100 | – | > 100 | – | > 100 | > 100 | – | – | – | – | – | – | – | – | – | –
Cc1cc(N(CCC#N)S(=O)(=O)c2ccccc2)ccc1C=Nc1cccc(C(=O)O)c1 | – | > 100 | > 100 | > 100 | > 100 | – | > 100 | > 100 | > 100 | > 100 | – | – | – | – | – | – | – | – | – | –
COc1cccc(N/C(C)=C2/CCOC2=O)c1 | > 10 | > 10 | > 10 | > 10 | > 10 | > 10 | > 10 | > 10 | – | – | – | – | – | – | – | – | – | – | – | –
Oc1cc(O)c2c(c1)O[C@H](c1ccc(O)c(O)c1)[C@@H](O)C2 | > 100 | > 100 | > 100 | > 100 | > 100 | > 100 | > 100 | > 100 | > 100 | > 100 | – | – | – | – | – | – | – | – | – | –
CC1(CO)C(O)CCC2(C)C1CCC1CC3CC12CCC3(O)CO (centres undefined) | > 100 | > 100 | > 100 | > 100 | – | > 100 | > 100 | > 100 | > 100 | > 100 | – | – | – | – | – | – | – | – | – | –
O=C(Nc1ccccc1)c1cc2ccccc2c(N=Nc2cccc([N+](=O)[O-])c2)c1O | > 100 | > 100 | > 100 | > 100 | > 100 | > 100 | > 100 | > 100 | > 100 | > 100 | – | – | – | – | – | – | – | – | – | –
C[C@@H]1C[C@H]2OC(=O)[C@@]3(C)CCC[C@@](C)([C@@H]23)[C@@]1(O)CCc1ccoc1 | > 100 | > 100 | > 100 | > 100 | > 100 | > 100 | > 100 | > 100 | > 100 | > 100 | – | – | – | – | – | – | – | – | – | –
C1=N[C@]23C(=N[C@H](N=C2NCc2ccco2)[C@]24N=CNC2=N[C@H]3N=C4NCc2ccco2)N1 | > 100 | > 100 | > 100 | > 100 | > 100 | > 100 | > 100 | > 100 | > 100 | > 100 | > 100 | > 100 | > 100 | 89.5 | > 100 | > 100 | > 100 | > 100 | > 100 | > 100
Cc1c(C)c2c(c(C)c1OC(=O)CCC(=O)[O-])CCC(C)(CCCCCCCCCCC[P+](c1ccccc1)(c1ccccc1)c1ccccc1)O2 (centres undefined) | 0.705 | – | – | 1.45 | – | 22 | 0.671 | – | 0.512 | 50 | 0.177 | – | – | 0.222 | 0.159 | 0.151 | – | 5.62 | 0.182 | –
O=C(NN1C(=O)C(Cl)C1c1cccc(O)c1)c1ccccc1O (centres undefined) | > 100 | > 100 | > 100 | – | – | – | > 100 | > 100 | > 100 | > 100 | – | – | – | – | – | – | – | – | – | –
